Where two headings read alike, the source gives them in different places.
How the values were obtained:
Type in all cases: biochemical
[1] = biological target: Cathepsin B (Rattus norvegicus, UniProt P00787); assay: In vitro assay of inhibition of Cathepsin B (N-CBZ-Phe-Arg-AMC substrate)
Experimental: After 10 min of incubation at room temperature a 20 μl of 5 mM substrate (N-CBZ-Phe-Arg-AMC, dissolved in DMSO) was added to initiate reaction. Reading is followed up for 10 min at the Fluoroscan reader (excitation at 380 nm, emission at 460 nm).

[2] = biological target: T1, papain (Carica papaya, UniProt P00784); assay: Assay of inhibition of papain (N-CBZ-Pro-Phe-Arg-pNA substrate)
T1 sequence (P00784 134-345): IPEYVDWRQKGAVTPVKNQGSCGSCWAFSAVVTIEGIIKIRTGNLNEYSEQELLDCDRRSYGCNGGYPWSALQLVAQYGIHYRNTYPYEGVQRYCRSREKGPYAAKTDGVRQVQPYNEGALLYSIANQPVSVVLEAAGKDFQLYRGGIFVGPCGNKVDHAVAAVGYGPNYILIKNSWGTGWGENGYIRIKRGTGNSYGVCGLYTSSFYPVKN
Experimental: To a 170 μl of enzyme-buffer mixture (enzyme:papain, diluted to give 30 mOD/min, buffer: 0.2M potassium phosphate, 1.0 mM EDTA, 5 mML Cysteine, pH6.5) a 10 μl of inhibitor (dissolved in DMSO) was added. After 10 min of incubation at room temperature, 20 μl of 10 mM substrate (N-CBZ-Pro-Phe-Arg-pNA, dissolved in DMSO) was added to initiate reaction. Reading is followed up for 3 min at the Thermomax plate reader(absorbance at 405 nm).
A plot of percentage of inhibition vs inhibitor concentration is obtained, and IC50 is determined using a linear regression calculations (concentration of inhibitor which will give 50% inhibition).

[3] = biological target: Cathepsin L (Rattus norvegicus, UniProt P07154); assay: Assay of inhibition of Cathepsin L (N-CBZ-Phe-Arg-AMC substrate)
Cathepsin L, sequence (P07154 114-334): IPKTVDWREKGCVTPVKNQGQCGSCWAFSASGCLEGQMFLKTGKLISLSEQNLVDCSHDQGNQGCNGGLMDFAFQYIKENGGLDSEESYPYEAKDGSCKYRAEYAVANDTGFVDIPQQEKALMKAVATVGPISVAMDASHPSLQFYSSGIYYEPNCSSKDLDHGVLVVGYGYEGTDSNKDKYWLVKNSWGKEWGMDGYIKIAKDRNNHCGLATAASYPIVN
Experimental: After 10 min of incubation at room temperature a 20 μl of 1 mM substrate (N-CBZ-Phe-Arg-AMC, dissolved in DMSO) was added to initiate reaction. Reading is followed up for 10 min at the Fluoroscan reader (excitation at 380 nm, emission at 460 nm).

[4] = r rat CathB, pH5.1, 10 min preincubation at room temperature, read-out: IC50, Cathepsin B
[5] = pH6.5, 10 min preincubation at room temperature, read-out: IC50, Papain
[6] = r rat CathL, pH5.0, 10 min preincubation at room temperature, read-out: IC50, Cathepsin L

Cathepsin B, sequence (P00787 80-339): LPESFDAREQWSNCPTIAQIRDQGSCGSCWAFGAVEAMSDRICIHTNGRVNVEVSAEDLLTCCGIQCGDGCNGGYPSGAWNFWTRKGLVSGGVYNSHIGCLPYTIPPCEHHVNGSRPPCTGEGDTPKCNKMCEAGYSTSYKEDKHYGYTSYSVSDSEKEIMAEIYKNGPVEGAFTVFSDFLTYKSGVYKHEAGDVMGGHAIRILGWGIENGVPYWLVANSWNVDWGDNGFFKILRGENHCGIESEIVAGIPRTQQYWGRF

| SMILES | IC50 [1, 4] | IC50 [2] | IC50 [3] | IC50 [2, 5] | IC50 [3, 6] | IC50 [1] |
| --- | --- | --- | --- | --- | --- | --- |
| C[C@H]1[C@H](NC(=O)CNC(=O)[C@H](Cc2ccccc2)NC(=O)OCc2ccccc2)C(=O)N1S(=O)(=O)O [Example 6, Potassium (3S,4S)-3-(N-benzyloxycarbonyl-L-phenylalanyl-glycinyl)-amino-4-methyl-azetidin-2-one-1-sulfonate] | > 25000 nM | > 25000 nM | – | – | – | – |
| CC(=O)O[C@@H]1NC(=O)[C@H]1NC(=O)[C@H](CC(C)C)NC(=O)OCc1ccccc1 [Example 8, (3S,4S)-3-(N-benzyloxycarbonyl-L-leucyl)-amino-4-acetoxy-azetidin-2-one] | – | 731 nM | 30 nM | – | – | – |
| CC(=O)N[C@@H](Cc1ccccc1)C(=O)N[C@@H]1C(=O)N[C@H]1OC(C)=O [Example 9] | 42300 nM | – | – | 228 nM | 2700 nM | – |
| N[C@@H](Cc1ccc(O[C@@H]2NC(=O)[C@H]2NC(=O)[C@H](Cc2ccccc2)NC(=O)CCc2ccccc2)cc1)C(=O)O [Example 29B, (3S,4S)-3-{N-(3-phenylpropionoyl)-L-phenylalanyl}-amino-4-{4-(L-2-amino-2-carboxy-ethyl)-phenoxy}-azetidin-2-one] | > 46000 nM | 368 nM | – | – | 292 nM | – |
| CC(=O)O[C@@H]1NC(=O)[C@H]1NC(=O)[C@H](C)NC(=O)OCc1ccccc1 [Example 33, (3S,4S)-3-(N-benzyloxycarbonyl-L-alanyl)-amino-4-acetoxy-azetidin-2-one] | 14300 nM | 7030 nM | – | – | 35900 nM | – |
| CC(C)C[C@H](NC(=O)[C@H]1O[C@@H]1C(=O)O)C(=O)NCCCCN=C(N)N [Example E-64, reference compound] | 5 nM | – | – | 2.5 nM | 15 nM | – |
| CC(=O)N[C@@H](CC(C)C)C(=O)N[C@@H](CC(C)C)C(=O)N[C@H](C=O)CCCNC(=N)N [Leupeptin, reference compound] | – | – | – | 12 nM | 8 nM | 13 nM |

Reference: patent US5986108A, “4-substitued-3-[1 or 2 amino acid residue]-azetidin-2-one derivatives useful as cysteine proteinase inhibitor” (Synphar Laboratories, Inc., priority 1997, dated 1999)
